According to patent publication EP1377579B1 (Aventis Pharmaceuticals Inc., priority 2000, dated 2002):
Counter-ions that a name gives are not always drawn.

Legend:
[1] = molecular target: cdk2/cyclin E (Homo sapiens, UniProt P24941); experiment: Cyclin-dependent kinase assay, cdk2/cyclin E; conditions: CDK2 IC50, nM, GST-pRb substrate, 10 µM ATP
[2] = tested on: PC-3; experiment: In vitro proliferation assay (MTT), PC-3; format: cell-based, human; conditions: Homo sapiens, PC-3, MTT assay; value (SD, n) where given; read-out: PC-3 Prostate (IC50 µM)
Experimental: (§1) The proliferation of tumor cells can be measured using a tetrazolium salt-based assay known as the MTT (3-[4,5-Dimethylthiazol-2-yl]-2,5-diphenyltetrazolium bromide) assay. […] For the assay, the cell lines are plated onto 96 well plates at 1000 to 2500 cells/well (depending on the properties of the individual cell lines), left to attach and recover overnight. […] After 3 days, the cells are incubated with MTT dye (3-[4,5-Dimethylthiazol-2-yl]-2,5-diphenyltetrazolium bromide, Sigma # M5655, 10 mg/ml in Hank's Buffered Saline) to estimate the amount of live cells remaining vs. concentration for the test compounds. […] The MTT and culture medium is then removed from the cultures and 200 µl of DMSO is added to solubilize the dye from the cell layer. The absorbance at 570 nm is determined for each culture using a Spectramax plate reader (Molecular Devices).
(§2) IC50s were determined from the raw data from either the MTT or SRB assays.
(§3) All of the cell lines were obtained from American Type Tissue Collection, with the ATCC accession number in parentheticals. MCF-7 and MDA-MB-231 cells were grown in improved minimum essential medium (Biofluids) without phenol red, supplemented with 5 % fetal bovine serum, 0.01 mg/ml gentamicin and 3 mM L-glutamine.

[3] = molecular target: cdk1/cyclin B (Homo sapiens, UniProt P06493); experiment: Cyclin-dependent kinase assay, cdk1/cyclin B; conditions: CDK1 IC50, nM, Histone H1, 10 µM ATP
[4] = molecular target: cdk4/cyclin D1 (Homo sapiens, UniProt P11802); experiment: Cyclin-dependent kinase assay, cdk4/cyclin D1; format: biochemical; conditions: cyclin D1/cdk4; GST-pRb substrate, 10 µM ATP
[5] = tested on: MDA-MB-435; experiment: In vitro proliferation assay (MTT), MDA-MB-435; format: cell-based, human; conditions: Homo sapiens, MDA-MB-435, MTT assay; value (SD, n) where given; read-out: MB-435 Breast (IC50 µM)
Experimental: as §1, §2, §3

cdk1/cyclin B, sequence (P06493 whole entry): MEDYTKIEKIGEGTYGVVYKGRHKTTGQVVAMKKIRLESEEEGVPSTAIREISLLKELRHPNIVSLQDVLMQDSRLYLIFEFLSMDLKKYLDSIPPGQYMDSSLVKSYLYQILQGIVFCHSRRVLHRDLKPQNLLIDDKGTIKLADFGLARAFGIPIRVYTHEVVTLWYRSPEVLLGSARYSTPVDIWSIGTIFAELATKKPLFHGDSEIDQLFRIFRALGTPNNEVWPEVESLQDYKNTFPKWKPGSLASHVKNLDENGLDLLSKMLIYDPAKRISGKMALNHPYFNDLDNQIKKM
cdk1/cyclin B, sequence (P14635 whole entry partner): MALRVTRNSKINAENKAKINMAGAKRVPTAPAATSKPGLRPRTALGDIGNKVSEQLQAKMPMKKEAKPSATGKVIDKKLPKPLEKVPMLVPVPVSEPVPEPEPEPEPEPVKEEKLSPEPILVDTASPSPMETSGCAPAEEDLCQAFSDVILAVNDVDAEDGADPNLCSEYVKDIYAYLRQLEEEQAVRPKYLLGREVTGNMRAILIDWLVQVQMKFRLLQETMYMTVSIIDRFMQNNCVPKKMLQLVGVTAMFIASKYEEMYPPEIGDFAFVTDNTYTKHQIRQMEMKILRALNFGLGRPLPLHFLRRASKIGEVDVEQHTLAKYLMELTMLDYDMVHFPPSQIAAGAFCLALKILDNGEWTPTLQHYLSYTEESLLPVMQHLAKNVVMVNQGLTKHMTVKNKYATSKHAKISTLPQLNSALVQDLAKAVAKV
cdk4/cyclin D1, sequence (P11802 whole entry): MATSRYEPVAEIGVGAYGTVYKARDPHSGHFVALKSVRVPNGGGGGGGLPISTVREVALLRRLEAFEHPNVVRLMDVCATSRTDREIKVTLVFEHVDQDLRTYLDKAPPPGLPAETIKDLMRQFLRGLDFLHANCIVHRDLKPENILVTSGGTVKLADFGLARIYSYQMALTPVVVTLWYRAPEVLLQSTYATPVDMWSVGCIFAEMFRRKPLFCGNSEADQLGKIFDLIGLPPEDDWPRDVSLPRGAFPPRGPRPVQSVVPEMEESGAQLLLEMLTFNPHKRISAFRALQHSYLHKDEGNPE
cdk4/cyclin D1, sequence (P24385 whole entry partner): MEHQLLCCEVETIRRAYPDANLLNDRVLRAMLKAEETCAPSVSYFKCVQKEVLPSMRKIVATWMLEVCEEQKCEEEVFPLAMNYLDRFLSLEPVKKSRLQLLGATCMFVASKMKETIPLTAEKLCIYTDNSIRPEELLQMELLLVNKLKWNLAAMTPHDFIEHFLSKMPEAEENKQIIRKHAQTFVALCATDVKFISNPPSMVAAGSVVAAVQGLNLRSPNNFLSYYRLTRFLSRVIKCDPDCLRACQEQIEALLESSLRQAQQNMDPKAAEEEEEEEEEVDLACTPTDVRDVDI

SMILES	IC50 [1]	IC50 [2]	IC50 [3]	IC50 [4]	IC50 [5]
COc1cc(C(=O)N2CCC(Nc3nc(N[C@H]4CC[C@H](N)CC4)nc4c3ncn4C3CCCC3)CC2)cc(OC)c1OC [compound 16, trans-1-{4-[2-(4-Amino-cyclohexylamino)-9-cyclopentyl-9H-purin-6-ylamino]-piperidin-1-yl}-1-(3,4,5-trimethoxy-phenyl)-methanone]	83 nM	7.91 µM	43 nM	372 nM	8.52 µM
COc1cc(OC)cc(C(=O)N2CCC(Nc3nc(N[C@H]4CC[C@H](N)CC4)nc4c3ncn4C3CCCC3)CC2)c1 [compound 17, trans-1-{4-[2-(4-Amino-cyclohexylamino)-9-cyclopentyl-9H-purin-6-ylamino]-piperidin-1-yl}-1-(3,5-dimethoxy-phenyl)-methanone]	189 nM	1.82 µM	89 nM	467 nM	2.22 µM
CCCCOc1ccc(C(=O)N2CCC(Nc3nc(N[C@H]4CC[C@H](N)CC4)nc4c3ncn4C3CCCC3)CC2)cc1 [compound 18, trans-1-{4-[2-(4-Amino-cyclohexylamino)-9-cyclopentyl-9H-purin-6-ylamino]-piperidin-1-yl}-1-(4-butoxy-phenyl)-methanone]	336 nM	3.43 µM	506 nM	1490 nM	2.76 µM
CCCCCCCOc1ccc(C(=O)N2CCC(Nc3nc(N[C@H]4CC[C@H](N)CC4)nc4c3ncn4C3CCCC3)CC2)cc1 [compound 19, trans-1-{4-[2-(4-Amino-cyclohexylamino)-9-cyclopentyl-9H-purin-6-ylamino]-piperidin-1-yl}-1-(4-heptoxy-phenyl)-methanone]	567 nM	0.96 µM	62 nM	883 nM	0.58 µM
CC(C)(C)c1ccc(C(=O)N2CCC(Nc3nc(N[C@H]4CC[C@H](N)CC4)nc4c3ncn4C3CCCC3)CC2)cc1 [compound 20, trans-1-{4-[2-(4-Amino-cyclohexylamino)-9-cyclopentyl-9H-purin-6-ylamino]-piperidin-1-yl}-1-(4-tert-butyl-phenyl)-methanone]	352 nM	1.96 µM	161 nM	682 nM	2.25 µM
CCCCCc1ccc(C(=O)N2CCC(Nc3nc(N[C@H]4CC[C@H](N)CC4)nc4c3ncn4C3CCCC3)CC2)cc1 [compound 22, trans-1-{4-[2-(4-Amino-cyclohexylamino)-9-cyclopentyl-9H-purin-6-ylamino]-piperidin-1-yl}-1-(4-pentyl-phenyl)-methanone]	571 nM	1.86 µM	182 nM	383 nM	1.61 µM
CCCCCCc1ccc(C(=O)N2CCC(Nc3nc(N[C@H]4CC[C@H](N)CC4)nc4c3ncn4C3CCCC3)CC2)cc1 [compound 23, trans-1-{4-[2-(4-Amino-cyclohexylamino)-9-cyclopentyl-9H-purin-6-ylamino]-piperidin-1-yl}-1-(4-hexyl-phenyl)-methanone]	596 nM	2.27 µM	300 nM	629 nM	1.08 µM
N#Cc1ccc(C(=O)N2CCC(Nc3nc(N[C@H]4CC[C@H](N)CC4)nc4c3ncn4C3CCCC3)CC2)cc1 [compound 25, trans-1-{4-[2-(4-Amino-cyclohexylamino)-9-cyclopentyl-9H-purin-6-ylamino]-piperidin-1-yl}-1-(4-cyano-phenyl)-methanone]	79 nM	2.72 µM	56 nM	629 nM	3.76 µM
N[C@H]1CC[C@H](Nc2nc(NC3CCN(C(=O)c4cccc([N+](=O)[O-])c4)CC3)c3ncn(C4CCCC4)c3n2)CC1 [compound 26, trans-1-{4-[2-(4-Amino-cyclohexylamino)-9-cyclopentyl-9H-purin-6-ylamino]-piperidin-1-yl}-1-(3-nitro-phenyl)-methanone]	78 nM	1.67 µM	31 nM	564 nM	2.18 µM
CCOC(=O)CC(=O)N1CCC(Nc2nc(N[C@H]3CC[C@H](N)CC3)nc3c2ncn3C2CCCC2)CC1 [compound 29, trans-3-{4-[2-(4-Amino-cyclohexylamino)-9-cyclopentyl-9H-purin-6-ylamino]-piperidin-1-yl}-3-oxo-propionic acid ethyl ester dihydrochloride]	56 nM	2.4 µM	27 nM	632 nM	3 µM
COc1ccc(CC(=O)N2CCC(Nc3nc(N[C@H]4CC[C@H](N)CC4)nc4c3ncn4C3CCCC3)CC2)cc1OC [compound 32, trans 1-{4-[2-(4-Amino-cyclohexylamino)-9-cyclopentyl-9H-purin-6-ylamino]-piperidin-1-yl}-2-(3,4-dimethoxy-phenyl)-ethanone dihydrochloride]	53 nM	4.84 µM	24 nM	189 nM	5.46 µM
C/C=C/C(=O)N1CCC(Nc2nc(N[C@H]3CC[C@H](N)CC3)nc3c2ncn3C2CCCC2)CC1 [compound 35, trans (E)-1-{4-[2-(4-Amino-cyclohexylamino)-9-cyclopentyl-9H-purin-6-ylamino]-piperidin-1-yl}-but-2-en-1-one dihydrochloride]	55 nM	0.98 µM	48 nM	766 nM	1.38 µM
N[C@H]1CC[C@H](Nc2nc(NC3CCN(C(=O)CCC4CCCC4)CC3)c3ncn(C4CCCC4)c3n2)CC1 [compound 36, trans-1-{4-[2-(4-Amino-cyclohexylamino)-9-cyclopentyl-9H-purin-6-ylamino]-piperidin-1-yl}-3-cyclopentyl-propan-1-one dihydrochloride]	79 nM	0.39 µM	45 nM	697 nM	0.39 µM
COc1cccc(CC(=O)N2CCC(Nc3nc(N[C@H]4CC[C@H](N)CC4)nc4c3ncn4C3CCCC3)CC2)c1 [compound 38, trans-1-{4-[2-(4-Amino-cyclohexylamino)-9-cyclopentyl-9H-purin-6-ylamino]-piperidin-1-yl}-2-(3-methoxy-phenyl)-ethanone dihydrochloride]	66 nM	1.83 µM	27 nM	703 nM	1.28 µM
N[C@H]1CC[C@H](Nc2nc(NC3CCN(C(=O)C4CCCC4)CC3)c3ncn(C4CCCC4)c3n2)CC1 [compound 39, trans-1-{4-[2-(4-Amino-cyclohexylamino)-9-cyclopentyl-9H-purin-6-ylamino]-piperidin-1-yl}-1-cyclopentyl-methanone]	51 nM	0.61 µM	66 nM	664 nM	0.51 µM
N[C@H]1CC[C@H](Nc2nc(NC3CCN(C(=O)C(c4ccccc4)c4ccccc4)CC3)c3ncn(C4CCCC4)c3n2)CC1 [compound 40, trans-1-{4-[2-(4-Amino-cyclohexylamino)-9-cyclopentyl-9H-purin-6-ylamino]-piperidin-1-yl}-2,2-diphenyl-ethanone dihydrochloride]	61 nM	0.27 µM	36 nM	238 nM	0.22 µM
COc1ccc(CC(=O)N2CCC(Nc3nc(N[C@H]4CC[C@H](N)CC4)nc4c3ncn4C3CCCC3)CC2)cc1 [compound 42, trans-1-{4-[2-(4-Amino-cyclohexylamino)-9-cyclopentyl-9H-purin-6-ylamino]-piperidin-1-yl}-2-(4-methoxy-phenyl)-ethanone dihydrochloride]	51 nM	1.06 µM	21 nM	103 nM	1.1 µM
C[C@H](O)C(=O)N1CCC(Nc2nc(N[C@H]3CC[C@H](N)CC3)nc3c2ncn3C2CCCC2)CC1 [compound 47, trans-(S)-1-{4-[2-(4-Amino-cyclohexylamino)-9-cyclopentyl-9H-purin-6-ylamino]-piperidin-1-yl}-2-hydroxy-propan-1-one dihydrochloride]	14 nM	1.8 µM	36 nM	361 nM	1.99 µM
N[C@H]1CC[C@H](Nc2nc(NC3CCN(C(=O)Cc4ccc(F)cc4)CC3)c3ncn(C4CCCC4)c3n2)CC1 [compound 48, trans-1-{4-[2-(4-Amino-cyclohexylamino)-9-cyclopentyl-9H-purin-6-ylamino]-piperidin-1-yl}-2-(4-fluoro-phenyl)-ethanone dihydrochloride]	61 nM	0.84 µM	48 nM	503 nM	0.75 µM
